Experimental data as given in patent US20240315991A1, “USES OF HNF4 ALPHA AGONISTS” (Sanford Burnham Prebys Medical Discovery Institute, priority 2023, published 2024).

Key:
Type in all cases: in vivo
HSP60 mRNA = assay: RT-PCR of mouse liver, HSP60; conditions: HFD+NCT vs HFD, FIG. 3M
Procedure: (§1) NCT oral administration. Four-week-old male C57BL/6J (JAX cat #000664) mice were purchased from Jackson laboratory and were maintained in a 12 h light/dark cycle throughout the experiment. Prior to the experiments, mice were acclimated for 2 weeks. Six-week-old mice with similar body weights were randomized to a normal diet (NC), a high fat diet (HFD) (Research Diets, cat #D12492 60 kcal % fat) or HFD containing 4000 ppm NCT (HFD+NCT) (Research Diets, 60 kcal % fat+4000 ppm NCT), which was calculated to provide approximately 400 mg/kg/d NCT. HFD chow containing NCT was made with gray dye to distinguish it from regular HFD chow that had green dye. Mice for each treatment group were placed in separate cages. Equal amounts of fresh chow were provided every week to all mice. Body weight gain and food intake were measured every week for 10 weeks. After 10 weeks of chow treatment, mice were sacrificed for analysis. […]
(§2) RT-PCR. […] Quantitative real time PCR (RT-PCR) analysis was performed using SYBR® Select Master Mix (Applied Biosystems) and an ABI 7900HT thermal cycler (Applied Biosystems, Thermo Fisher Scientific). Ct values were normalized to 18s rRNA and are expressed as fold change over samples from mice fed NC or cultured human hepatocytes without NCT.

PPARGC1A mRNA = assay: RT-PCR of mouse liver, PPARGC1A; conditions: HFD+NCT vs HFD, FIGS. 4A-4C
Procedure: as §1, §2

nitric oxide (NO) = assay: Nitric oxide assay in mouse liver; conditions: HFD+NCT vs HFD, FIG. 5G
Procedure: as §1
T6PNE cells were maintained in RPMI (5.5 mM glucose, Corning) supplemented with 10% fetal bovine serum (FBS, Sigma-Aldrich) and 1% penicillin-streptomycin (pen-strep, Gibco) in 5% CO2 at 37° C. […] NO was measured with the QuantiChrom Nitric Oxide Assay kit (D2NO-100, BioAssay Systems). […] Samples and standard from kit were incubated with reagents for 20 min at 60° C. and measured OD 540 nm.

For `O=C(/C=C/c1ccc(O)c(O)c1)NCCc1ccc(O)cc1` [NCT, N-trans caffeoyltyramine], the “HSP60 mRNA level in liver” value (HSP60 mRNA) was “reverse the induction”, the “PPARGC1A(PGC1a) mRNA level in mouse liver” value (PPARGC1A mRNA) was “increase” and the “level of NO in the livers of mice fed on HFD” value (nitric oxide (NO)) was “decrease”.
